Results on 15 compounds are retold here after patent publication US5712417A, “Inhibitors of retroviral proteases” (Abbott Laboratories, priority 1989, dated 1998).

SMILES strings stand for the structures. Where a name gives a salt, the structure may show the parent alone. Where a SMILES comes first, the peptide text is derived from it. [ ]: non-standard residue; d: D form. The star is where a group is joined. Sta = CC(C)C[C@H](N)[C@@H](O)CC(=O)O; Isovaleryl = CC(C)CC(=O)*

One may read the IC50 as the midpoint of a concentration-inhibition curve.

The first data set deals with core protein p24.
Test: not given
As to conditions: high doses; cited from earlier work.
In the case of `CC(C)CC(=O)N[C@H](C(=O)N[C@H](C(=O)N[C@@H](CC(C)C)[C@@H](O)CC(=O)N[C@@H](C)C(=O)N[C@@H](CC(C)C)[C@@H](O)CC(=O)O)C(C)C)C(C)C` [Pepstatin A] (Isovaleryl-VV[Sta]A[Sta]-OH), the “reducing the formation of the core protein p24” value was “capable of reducing the formation of the core protein p24”.

The next data set has as its target T1, HIV protease (Human immunodeficiency virus type 1 group M subtype B, UniProt P04585).
T1 construct: HIV protease consists of 99 amino acids and is evidently split off by itself from the pol polyprotein
The experiment in a line: Inhibition of HIV protease (cleavage of H-Ser-Phe-Asn-Phe-Opr-Gln-Ile-OH, HPLC). The format is biochemical. The following applies: inhibitor concentration at which the cleavage rate is halved; pH 6, 2 hours; read-out: IC50. The method in brief:
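Substrate H-Ser-Phe-Asn-Phe-Opr-Gln-Ile-OH in MGTE buffer (MES, glycerol, Triton X-100, PMSF, pH 6) preincubated with inhibitor at 37 °C for 5-10 min, then reacted with protease at 35 °C for 2 h. RP18 HPLC at 215 nm; tetrapeptide fraction gives cleavage rate, IC50 where rate is halved.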
For `CC(C)[C@H](NC(=O)[C@H](Cc1ccccc1)OC1O[C@H]([C@H](O)CO)[C@H](O)[C@@H]1O)C(=O)N[C@@H](Cc1ccccc1)[C@@H](O)[C@H](O)[C@H](Cc1ccccc1)NC(=O)[C@@H](NC(=O)[C@H](Cc1ccccc1)OC1O[C@H]([C@H](O)CO)[C@H](O)[C@@H]1O)C(C)C` (stereo partly drawn) [Example 107, N,N'-bis-<O-(D-Mannofuranosyl)-2S-hydroxy-3-phenyl-propionyl-L-valyl>-2S,5S-diamino-1,6-diphenylhexane-3R,4R-diol], the IC50 came to 8.5 nM. With `CC(C)[C@H](NC(=O)[C@@H](O)CCc1ccccc1)C(=O)N[C@@H](Cc1ccccc1)[C@H](O)[C@@H](O)[C@H](Cc1ccccc1)NC(=O)[C@@H](NC(=O)[C@@H](O)CCc1ccccc1)C(C)C` [Example 94, N,N'-bis-<(2S-Hydroxy-4-phenylbutyryl)-L-valyl>-2S,5S-diamino-1,6-diphenylhexane-3S,4S-diol], the IC50 was 6.5 nM.

As for `CC(C)[C@H](NC(=O)[C@H](Cc1ccccc1)NC(=O)OC(C)(C)C)C(=O)N[C@@H](CC1CCCCC1)[C@H](O)[C@@H](O)[C@H](CC1CCCCC1)NC(=O)[C@@H](NC(=O)[C@H](Cc1ccccc1)NC(=O)OC(C)(C)C)C(C)C` [Example 45, N,N'-bis-(tert.-Butoxycarbonyl-L-phenylalanyl-L-valyl)-2S,5S-diamino-1,6-dicyclohexylhexane-3S,4S-diol], the IC50 came to 1500 nM. With `CC(C)[C@H](NC(=O)[C@@H](N)Cc1ccccc1)C(=O)N[C@@H](CCc1ccncc1)[C@@H](O)[C@H](O)[C@H](CCc1ccncc1)NC(=O)[C@@H](NC(=O)[C@@H](N)Cc1ccccc1)C(C)C` [Example 108, N,N'-bis-(L-Phenylalanyl-L-valyl)-3S,6S-diamino-1,8-di(4-pyridyl)-octane-,5R-diol tetrahydrochloride], the IC50 turned out to be 280 nM. On to `CC(C)[C@H](NC(=O)[C@@H](N)Cc1ccccc1)C(=O)N[C@@H](Cc1ccccc1)[C@H](O)[C@@H](O)[C@H](Cc1ccccc1)NC(=O)[C@@H](NC(=O)[C@@H](N)Cc1ccccc1)C(C)C` [Example 17, N,N'-bis-(L-Phenylalanyl-L-valyl)-2S,5S-diamino-1,6-diphenylhexane-3S,4S-diol dihydrochloride], for which the half-inhibitory concentration (IC50) stood at 0.85 nM. Still for that read-out and setting: in the case of `CSCC[C@H](NC(=O)OC(C)(C)C)C(=O)N[C@H](C(=O)N[C@@H](Cc1ccccc1)[C@H](O)[C@@H](O)[C@H](Cc1ccccc1)NC(=O)[C@@H](NC(=O)[C@H](CCSC)NC(=O)OC(C)(C)C)C(C)C)C(C)C` [Example 75, N,N'-bis-<tert.-Butoxycarbonyl-L-methionyl-L-valyl>-2S,5S-diamino-1,6-diphenylhexane-3S,4S-diol] it was 19 nM; in that of `N[C@@H](CCCCNC(=O)OCc1ccccc1)C(=O)N[C@@H](Cc1ccccc1)[C@@H](O)[C@H](O)[C@H](Cc1ccccc1)NC(=O)[C@@H](N)CCCCNC(=O)OCc1ccccc1` [Example 132, N,N'-bis-<N^6 -Benzoxycarbonyl-L-lysyl>-2S,5S-diamino-1,6-diphenylhexane-3R,4R-diol dihydrochloride], 20000 nM. Still for that read-out and setting: for `CC(C)[C@H](NC(=O)[C@H](CCS(C)(=O)=O)NC(=O)OC(C)(C)C)C(=O)N[C@@H](Cc1ccccc1)[C@@H](O)[C@H](O)[C@H](Cc1ccccc1)NC(=O)[C@@H](NC(=O)[C@H](CCS(C)(=O)=O)NC(=O)OC(C)(C)C)C(C)C` [Example 90, N,N'-bis-<tert.-Butoxycarbonyl-L-(S-dioxo)methionyl-L-valyl>-2S,SS-diamino-1,6-diphenylhexane-3R,4R-diol] the value was 2.2 nM; for `CC(C)[C@H](NC(=O)[C@@H](N)Cc1ccccc1)C(=O)N[C@@H](Cc1ccc2c(c1)OCO2)[C@@H](O)[C@H](O)[C@H](Cc1ccc2c(c1)OCO2)NC(=O)[C@@H](NC(=O)[C@@H](N)Cc1ccccc1)C(C)C` [Example 154, N,N'-bis-(L-Phenylalanyl-L-valyl)-2S,5S-diamino-1,6-bis-(3,4-methylenedioxyphenyl)-hexane-3R,4R-diol dihydro-chloride], 1 nM. On the same count and under the same terms, in the case of `CC[C@H](C)[C@H](NC(=O)[C@@H](N)Cc1ccccc1)C(=O)N[C@@H](Cc1ccccc1)[C@H](O)[C@@H](O)[C@H](Cc1ccccc1)NC(=O)[C@@H](NC(=O)[C@@H](N)Cc1ccccc1)[C@@H](C)CC` [Example 65, N,N'-bis-<L-Phenylalanyl-L-isoleucyl>-2S,5S-diamino-1,6-diphenylhexane-3S,4S-diol dihydrochloride] it was 1.8 nM; in that of `CC(C)[C@H](NC(=O)[C@H](Cc1ccccc1)NC(=O)OC(C)(C)C)C(=O)N[C@@H](Cc1ccccc1)[C@H](O)[C@H](O)[C@H](Cc1ccccc1)NC(=O)[C@@H](NC(=O)[C@H](Cc1ccccc1)NC(=O)OC(C)(C)C)C(C)C` [Example 7, N,N'-bis-(tert.-Butoxycarbonyl-L-phenylalanyl-L-valyl)-2S,5S-diamino-1,6-diphenylhexane-3R,4S-diol], 18 nM; in that of `CC(C)(C)[C@H](NC(=O)[C@H](Cc1ccccc1)CS(=O)(=O)C(C)(C)C)C(=O)N[C@@H](Cc1ccccc1)[C@@H](O)[C@H](O)[C@H](Cc1ccccc1)NC(=O)[C@@H](NC(=O)[C@H](Cc1ccccc1)CS(=O)(=O)C(C)(C)C)C(C)(C)C` [Example 91, N,N'-bis-<(2S-(1,1-Dimethylethylsulfonylmethyl)-3-phenyl-propionyl)-L-tert.-butylglycyl>-2S, 5S-diamino-1,6-diphenylhexane-3R, 4R-diol], 1.3 nM. Regarding `CC(C)[C@H](NC(=O)[C@H](Cc1ccccc1)NC(=O)OC(C)(C)C)C(=O)N[C@@H](Cc1ccccc1)[C@H](O)[C@@H](O)[C@H](Cc1ccccc1)NC(=O)[C@@H](NC(=O)[C@H](Cc1ccccc1)NC(=O)OC(C)(C)C)C(C)C` [Example 6, N,N'-bis-(tert.-Butoxycarbonyl-L-phenylalanyl-L-valyl)-2S,5S-diamino-1,6-diphenylhexane-3S,4S-diol], the IC50 turned out to be 8.8 nM.

The test system of the next data set is HIV protease.
Test: not given
The following applies: literature (Katoh et al., Nature 1987); cited from earlier work.
As to `CC(C)CC(=O)N[C@H](C(=O)N[C@H](C(=O)N[C@@H](CC(C)C)[C@@H](O)CC(=O)N[C@@H](C)C(=O)N[C@@H](CC(C)C)[C@@H](O)CC(=O)O)C(C)C)C(C)C` [Pepstatin A] (Isovaleryl-VV[Sta]A[Sta]-OH), the concentration for half-maximal inhibition (IC50) is […].

The next data set has as its system HIV.
Test: not given
As to conditions: first strains of HIV; cited from earlier work.
In the case of `Cc1cn([C@H]2C[C@H](N=[N+]=[N-])[C@@H](CO)O2)c(=O)[nH]c1=O` [Zidovudine (AZT)], the “sensitivity of HIV strains toward AZT” value is “significantly lower sensitivity”.

System in another data set: not given
Test: not given
As to conditions: in many cases require discontinuation of the therapy; cited from earlier work.
As for `Cc1cn([C@H]2C[C@H](N=[N+]=[N-])[C@@H](CO)O2)c(=O)[nH]c1=O` [Zidovudine (AZT)], the toxic side effects entry is “serious toxic side effects”.
